#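 These data come from cells grown in 96-well plates and exposed to compound for 48 hours at five concentrations. At the GI50, growth is halved.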 Calls of active or inactive are those of the source. No stated cut-off is given here; in the data, active = GI50 up to about 1.1 µM and inactive = higher.
# How the values were obtained:
# Test in all cases: inhibition of tumour cell growth, NCI panel, 48 h
# 786-0 = test system: 786-0
# A498 = test system: A498
# A549 = test system: A549
# ACHN = test system: ACHN
# CAKI-1 = test system: CAKI-1
# CCRF-CEM = test system: CCRF-CEM
# COLO 205 = test system: COLO 205
# DLD-1 = test system: DLD-1
# DMS-114 = test system: DMS-114
# DMS-273 = test system: DMS-273
# EKVX = test system: EKVX
# HCC 2998 = test system: HCC 2998
# HCT-116 = test system: HCT-116
# HCT-15 = test system: HCT-15
# HL-60 = test system: HL-60
# HOP-18 = test system: HOP-18
# HOP-62 = test system: HOP-62
# HOP-92 = test system: HOP-92
# HT-29 = test system: HT-29
# IGROV-1 = test system: IGROV-1
# K562 = test system: K562
# KM-20L2 = test system: KM-20L2
# KM12 = test system: KM12
# LOX IMVI = test system: LOX IMVI
# LXFL 529 = test system: LXFL 529
# M14 = test system: M14
# M19-MEL = test system: M19-MEL
# MOLT-4 = test system: MOLT-4
# Malme-3M = test system: Malme-3M
# NCI-H23 = test system: NCI-H23
# NCI-H460 = test system: NCI-H460
# OVCAR-3 = test system: OVCAR-3
# OVCAR-4 = test system: OVCAR-4
# OVCAR-5 = test system: OVCAR-5
# OVCAR-8 = test system: OVCAR-8
# RPMI-8226 = test system: RPMI-8226
# SF-268 = test system: SF-268
# SF-295 = test system: SF-295
# SF-539 = test system: SF-539
# SK-MEL-28 = test system: SK-MEL-28
# SK-MEL-2 = test system: SK-MEL-2
# SK-MEL-5 = test system: SK-MEL-5
# SK-OV-3 = test system: SK-OV-3
# SNB-19 = test system: SNB-19
# SNB-75 = test system: SNB-75
# SW-620 = test system: SW-620
# TK-10 = test system: TK-10
# U-251 = test system: U-251
# UACC-257 = test system: UACC-257
# UACC-62 = test system: UACC-62
# XF498 = test system: XF498
# RXF 393 = test system: RXF 393
# SNB-78 = test system: SNB-78
# SR = test system: SR
# UO-31 = test system: UO-31
# NCI-H522 = test system: NCI-H522
# SN12C = test system: SN12C
compound,measurement,setting,value
O=C1Nc2ccccc2C12CCNC2Cc1ccccc1 (stereo not given),GI50,786-0,> 100 µM (inactive)
same,GI50,A498,> 100 µM (inactive)
same,GI50,A549,> 100 µM (inactive)
same,GI50,ACHN,> 100 µM (inactive)
same,GI50,CAKI-1,> 100 µM (inactive)
same,GI50,CCRF-CEM,> 100 µM (inactive)
same,GI50,COLO 205,> 100 µM (inactive)
same,GI50,DLD-1,> 100 µM (inactive)
same,GI50,DMS-114,> 100 µM (inactive)
same,GI50,DMS-273,> 100 µM (inactive)
same,GI50,EKVX,> 100 µM (inactive)
same,GI50,HCC 2998,> 100 µM (inactive)
same,GI50,HCT-116,> 100 µM (inactive)
same,GI50,HCT-15,> 100 µM
same,GI50,HL-60,> 100 µM (inactive)
same,GI50,HOP-18,78.3 µM (inactive)
same,GI50,HOP-62,> 100 µM (inactive)
same,GI50,HOP-92,76.6 µM (inactive)
same,GI50,HT-29,> 100 µM (inactive)
same,GI50,IGROV-1,> 100 µM (inactive)
same,GI50,K562,> 100 µM (inactive)
same,GI50,KM-20L2,> 100 µM (inactive)
same,GI50,KM12,> 100 µM (inactive)
same,GI50,LOX IMVI,> 100 µM (inactive)
same,GI50,LXFL 529,> 100 µM (inactive)
same,GI50,M14,> 100 µM (inactive)
same,GI50,M19-MEL,> 100 µM (inactive)
same,GI50,MOLT-4,> 100 µM (inactive)
same,GI50,Malme-3M,> 100 µM (inactive)
same,GI50,NCI-H23,> 100 µM (inactive)
same,GI50,NCI-H460,> 100 µM (inactive)
same,GI50,OVCAR-3,> 100 µM (inactive)
same,GI50,OVCAR-4,> 100 µM (inactive)
same,GI50,OVCAR-5,> 100 µM (inactive)
same,GI50,OVCAR-8,> 100 µM (inactive)
same,GI50,RPMI-8226,> 100 µM (inactive)
same,GI50,SF-268,> 100 µM (inactive)
same,GI50,SF-295,> 100 µM (inactive)
same,GI50,SF-539,> 100 µM (inactive)
same,GI50,SK-MEL-28,> 100 µM (inactive)
same,GI50,SK-MEL-2,> 100 µM (inactive)
same,GI50,SK-MEL-5,> 100 µM (inactive)
same,GI50,SK-OV-3,> 100 µM (inactive)
same,GI50,SNB-19,56.6 µM (inactive)
same,GI50,SNB-75,> 100 µM (inactive)
same,GI50,SW-620,> 100 µM (inactive)
same,GI50,TK-10,> 100 µM (inactive)
same,GI50,U-251,> 100 µM (inactive)
same,GI50,UACC-257,> 100 µM (inactive)
same,GI50,UACC-62,> 100 µM (inactive)
same,GI50,XF498,> 100 µM (inactive)
O=C1OCc2cccc3c2-c2c1cccc2C(=O)OC3,GI50,CAKI-1,> 100 µM (inactive)
same,GI50,COLO 205,> 100 µM (inactive)
same,GI50,DLD-1,> 100 µM (inactive)
same,GI50,DMS-114,> 100 µM (inactive)
same,GI50,EKVX,> 100 µM (inactive)
same,GI50,HCC 2998,> 100 µM (inactive)
same,GI50,HCT-116,> 100 µM (inactive)
same,GI50,HCT-15,> 100 µM
same,GI50,HL-60,> 100 µM (inactive)
same,GI50,HOP-18,> 100 µM (inactive)
same,GI50,HOP-62,> 100 µM (inactive)
same,GI50,HOP-92,38.5 µM (inactive)
same,GI50,HT-29,> 100 µM (inactive)
same,GI50,IGROV-1,> 100 µM (inactive)
same,GI50,K562,> 100 µM (inactive)
same,GI50,KM-20L2,> 100 µM (inactive)
same,GI50,KM12,> 100 µM (inactive)
same,GI50,M14,> 100 µM (inactive)
same,GI50,M19-MEL,> 100 µM (inactive)
same,GI50,MOLT-4,> 100 µM (inactive)
same,GI50,Malme-3M,> 100 µM (inactive)
same,GI50,NCI-H23,> 100 µM (inactive)
same,GI50,OVCAR-3,> 100 µM (inactive)
same,GI50,OVCAR-4,> 100 µM (inactive)
same,GI50,OVCAR-8,> 100 µM (inactive)
same,GI50,RPMI-8226,> 100 µM (inactive)
same,GI50,RXF 393,> 100 µM (inactive)
same,GI50,SF-268,> 100 µM (inactive)
same,GI50,SF-295,> 100 µM (inactive)
same,GI50,SF-539,> 100 µM (inactive)
same,GI50,SK-MEL-28,> 100 µM (inactive)
same,GI50,SK-MEL-2,> 100 µM (inactive)
same,GI50,SK-MEL-5,> 100 µM (inactive)
same,GI50,SK-OV-3,> 100 µM (inactive)
same,GI50,SNB-19,> 100 µM (inactive)
same,GI50,SNB-78,> 100 µM (inactive)
same,GI50,SR,> 100 µM (inactive)
same,GI50,TK-10,> 100 µM (inactive)
same,GI50,U-251,> 100 µM (inactive)
same,GI50,UACC-62,> 100 µM (inactive)
same,GI50,UO-31,> 100 µM (inactive)
OC1/C(=C/c2ccccc2)CNC/C1=C\c1ccccc1 (stereo not given),GI50,786-0,> 100 µM (inactive)
same,GI50,A498,> 100 µM (inactive)
same,GI50,A549,> 100 µM (inactive)
same,GI50,ACHN,> 100 µM (inactive)
same,GI50,CAKI-1,43.1 µM (inactive)
same,GI50,CCRF-CEM,40.8 µM (inactive)
same,GI50,COLO 205,> 100 µM (inactive)
same,GI50,DLD-1,> 100 µM (inactive)
same,GI50,DMS-114,> 100 µM (inactive)
same,GI50,DMS-273,> 100 µM (inactive)
same,GI50,EKVX,> 100 µM (inactive)
same,GI50,HCC 2998,> 100 µM (inactive)
same,GI50,HCT-116,> 100 µM (inactive)
same,GI50,HCT-15,> 100 µM
same,GI50,HL-60,92.7 µM (inactive)
same,GI50,HOP-18,> 100 µM (inactive)
same,GI50,HOP-62,> 100 µM (inactive)
same,GI50,HOP-92,96.8 µM (inactive)
same,GI50,HT-29,89.7 µM (inactive)
same,GI50,IGROV-1,> 100 µM (inactive)
same,GI50,KM-20L2,> 100 µM (inactive)
same,GI50,KM12,> 100 µM (inactive)
same,GI50,LOX IMVI,> 100 µM (inactive)
same,GI50,LXFL 529,> 100 µM (inactive)
same,GI50,M14,> 100 µM (inactive)
same,GI50,M19-MEL,> 100 µM (inactive)
same,GI50,MOLT-4,> 100 µM (inactive)
same,GI50,Malme-3M,> 100 µM (inactive)
same,GI50,NCI-H460,> 100 µM (inactive)
same,GI50,NCI-H522,> 100 µM (inactive)
same,GI50,OVCAR-3,> 100 µM (inactive)
same,GI50,OVCAR-4,> 100 µM (inactive)
same,GI50,OVCAR-5,> 100 µM (inactive)
same,GI50,OVCAR-8,> 100 µM (inactive)
same,GI50,RPMI-8226,> 100 µM (inactive)
same,GI50,RXF 393,> 100 µM (inactive)
same,GI50,SF-268,> 100 µM (inactive)
same,GI50,SF-295,> 100 µM (inactive)
same,GI50,SF-539,> 100 µM (inactive)
same,GI50,SK-MEL-28,> 100 µM (inactive)
same,GI50,SK-MEL-5,> 100 µM (inactive)
same,GI50,SK-OV-3,> 100 µM (inactive)
same,GI50,SN12C,> 100 µM (inactive)
same,GI50,SNB-19,> 100 µM (inactive)
same,GI50,SNB-75,75.7 µM (inactive)
same,GI50,SNB-78,> 100 µM (inactive)
same,GI50,SR,> 100 µM (inactive)
same,GI50,SW-620,> 100 µM (inactive)
same,GI50,TK-10,> 100 µM (inactive)
same,GI50,U-251,> 100 µM (inactive)
same,GI50,UACC-257,> 100 µM (inactive)
same,GI50,UACC-62,> 100 µM (inactive)
same,GI50,UO-31,87.5 µM (inactive)

# From ChEMBL document CHEMBL1201862, “PubChem BioAssay data set” (2004)
